Experimental data reported in US8258182B2, “Substituted 1,3-diphenylpropane derivatives, preparations and uses thereof” (Genfit, priority 2006, dated 2012).

How the values were obtained:
[1] = tested on: PPARs target genes (PDK4, ApoCIII, ACO) in the hepatic tissue; assay: Hepatic expression of PPAR target genes in E2/E2 mice (quantitative RT-PCR); format: in vivo, mouse; settings: 3 and 10 mpk
Protocol: The effectiveness of the compounds according to the invention is also evaluated by measuring, in the hepatic tissue, the expression of genes involved in lipid and/or glucids metabolism and in energy dissipation. Each level of genes expression is normalised regarding the expression level of the reference gene 36B4's. The induction factor, i.e. the ratio between the relative signal (induced by the compound according to the invention) and the average of the relative values relating to the control group is then calculated. The higher the induction factor is, the more the compound promotes hepatic gene expression. The final result is expressed as an average of the induction values obtained with each experimental group.
The PPARα agonist properties previously measured in vitro should, in the liver, lead to an overexpression of the target genes directly under the control of the PPARα: the genes we have studied in this experiment are PDK-4 (an enzyme involved in glucid metabolism), Apo CIII (an apolipoprotein involved in lipid metabolism), and Acox1 (in mice, Acox1 corresponds to the ACO gene in humans (Acyl Co-enzymeA Oxydase, an enzyme key to the fatty acid β-oxidation mechanism)). Measuring the transcriptional activity of PPARα target genes after a treatment with compounds according to the invention does therefore allow to evaluate the hypolipidemic properties of the compounds according to the invention.
The ApoE2/E2 transgenic mice were kept on a 12 hour/12 hour light/dark cycle at a constant temperature of 20±3° C. After a one week acclimatization period, the mice were weighed and divided into groups of 6 animals selected so as to render uniform the distribution of their body weights and plasma lipid rates, determined before the experiment. The tested compounds were suspended in carboxymethylcellulose (Sigma C4888) and administered by intra-gastric tube feeding once a day for 8 days (for compound 1) or 14 days (for compound 8) with the chosen doses. The animals had free access to food and water (standard diet). Taking of food and weight gain are recorded throughout the experiment. At the end of the experiment, the animals were anesthetized after a 4 hour fast, and a blood sample was taken using (EDTA) anticoagulant, then the mice were weighed and euthanized. The plasma was separated by centrifugation at 3000 rotations/minute for 20 minutes. The samples were kept at +4° C.
Liver samples were removed, frozen in liquid nitrogen, and kept at −80° C. for later analyses.
Total RNA is extracted from liver fragments by using the NucleoSpin® 96 RNA kit (Macherey Nagel, Hoerdt, France) according to the manufacturer's instructions.
1 μg of total RNA (quantified by using the Ribogreen RNA quantification kit (Molecular Probes)) is then reverse-transcripted into complementary DNA by means of a 1 hour reaction at 37° C. in a total volume of 20 μl containing a 1× buffer (Sigma), 1.5 mM of DTT, 0.18 mM of dNTPs (Promega), 200 ng of pdN6 (Amersham), 30U of RNase inhibitor (Sigma), and 1 μl of MMLV-RT (Sigma).
The PCR quantitative experiments were carried out using the MyiQ Single-Color Real-Time PCR Detection System (Biorad, Marnes-la-Coquette, France) and were performed using the iQ SYBR Green Supermix kit according to the manufacturer's recommendations, in 96-well trays in 5 μl of a diluted reverse transcription solution at a hybridation temperature of 55° C. The specific primer pairs of the genes studied were used: • PDK4: sense primer: 5′-[…]-3′ (SEQ ID NO: 1) and antisense primer 5′-[…]-3′ (SEQ ID NO: 2)) • ApoCIII: sense primer: 5′-[…]-3′ (SEQ ID NO: 3) and antisense primer 5′-[…]-3′ (SEQ ID NO: 4). • ACO: sense primer: 5′-[…]-3′ (SEQ ID NO: 5) and antisense primer: 5′-[…]-3′ (SEQ ID NO: 6)
The quantity of fluorescencet emitted is directly proportional to the quantity of cDNA present at the beginning of the reaction and amplified during the PCR. […]

ApoE2/E2 mice = assay: Plasma lipids in dyslipidemic ApoE2/E2 mice after per os treatment; format: in vivo, mouse; settings: 3 and 10 mpk per os, 14 days, vs control animals (FIG. 2-3)
Protocol: The dyslipidemic E2/E2 mouse's rates of total cholesterol, of triglycerides, and plasma free fatty acids are measured after 8 or 14 days of a per os treatment with the compounds according to the invention.
The hypolipidemic properties of the compounds according to the invention are evaluated in vivo by assaying plasma lipids and the analysis of the PPARs target genes expression in the liver after a treatment treating of the dyslipidemic E2/E2 mice with the compounds according to the invention.
The murine model used is the ApoE2/E2 mouse, a transgenic mouse having the human apolipoprotein E isoform E2 (Sullivan P M et al., 1998). In human, this apolipoprotein, a constituent of low and very low density lipoproteins (LDL-VLDL), is present in three isoforms E2, E3, and E4. The E2 form presents a mutation affecting the amino acid in position 158, which considerably weakens the affinity of this protein for LDL receptors. Accordingly, the VLDL clearance is nearly non-existent. An accumulation of low-density lipoproteins then occurs along with a mixed hyperlipidemia known as type III (elevated cholesterol and triglycerides).
The ApoE2/E2 transgenic mice were kept on a 12 hour/12 hour light/dark cycle at a constant temperature of 20±3° C. After a one week acclimatization period, the mice were weighed and divided into groups of 6 animals selected so as to render uniform the distribution of their body weights and plasma lipid rates, determined before the experiment. The tested compounds were suspended in carboxymethylcellulose (Sigma C4888) and administered by intra-gastric tube feeding once a day for 8 days (for compound 1) or 14 days (for compound 8) with the chosen doses. […] Taking of food and weight gain are recorded throughout the experiment. […]
Plasma lipid concentrations (total cholesterol and triglycerides) are measured by enzymatic doses (bioMérieux-Lyon-France) according to the provider's recommendations.
Plasma cholesterol and triglycerides rates are measured after 8 or 14 days of a per os treatment with the compounds according to the invention. […]

## CCCOc1ccc(C(=O)CCc2cc(C)c(OC(C)(C)C(=O)O)c(C)c2)cc1 [Compound 8, 2-[2,6-dimethyl-4-[3-[4-(propyloxy)phenyl]-3-oxo-propyl]phenoxyl]-2-methylpropanoic acid]
[1]; 14 days (FIG. 2-7)
  hepatic expression of the genes coding for PDK4: significant augmentation
[1]; 14 days (FIG. 2-8)
  hepatic expression of the genes coding for ApoCIII: reduction
[1]; 14 days (FIG. 2-9)
  hepatic expression of the genes coding for ACO: significant augmentation
ApoE2/E2 mice
  plasma total cholesterol rates: very significantly decreased
